Measurements taken from the supplement of paper PMC10307832.

Assays:
Experiment in all cases: relative viability (nuclei count vs DMSO), 5 days (fraction); higher = more cells survive
[1] = compound: C1CSC2=C(C(=O)N1)SC3=C2C=C(C=C3)O [kb NB 142-70] + NC(=O)Nc1cc(-c2cccc(F)c2)sc1C(=O)N[C@H]1CCCNC1 [AZD7762] (partner 0.2 µM)
Summary of the method: (§1)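 Lung cancer cell lines in 1536-well plates got either a single drug or a fixed anchor-drug dose together with five library-drug doses (not always all listed) in √10 steps, by pin tool, on the day after seeding. Nuclei were counted after 5 days, and relative viability is the treated-to-vehicle ratio of nuclei counts. Values are medians of duplicate plates.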

[2] = compound: C1CSC2=C(C(=O)N1)SC3=C2C=C(C=C3)O [kb NB 142-70] + CS(=O)(=O)N1CCN(Cc2cc3nc(-c4cccc5[nH]ncc45)nc(N4CCOCC4)c3s2)CC1 [Pictilisib] (partner 1 µM)
Summary of the method: as §1

[3] = compound: NCC(=O)Nc1ccc(-n2nc(C(F)(F)F)cc2-c2ccc3c(ccc4ccccc43)c2)cc1 + CCNC(=O)c1noc(-c2cc(C(C)C)c(O)cc2O)c1-c1ccc(CN2CCOCC2)cc1 [Luminespib] (partner 0.01 µM)
Summary of the method: as §1

[4] = compound: C1CSC2=C(C(=O)N1)SC3=C2C=C(C=C3)O [kb NB 142-70] + CC1(C)CCC(c2ccc(Cl)cc2)=C(CN2CCN(c3ccc(C(=O)NS(=O)(=O)c4ccc(N[C@H](CCN5CCOCC5)CSc5ccccc5)c(S(=O)(=O)C(F)(F)F)c4)cc3)CC2)C1 [Navitoclax] (partner 0.5 µM)
Summary of the method: as §1

[5] = compound: C1CSC2=C(C(=O)N1)SC3=C2C=C(C=C3)O [kb NB 142-70] + CS(=O)(=O)CCNCc1ccc(-c2ccc3ncnc(Nc4ccc(OCc5cccc(F)c5)c(Cl)c4)c3c2)o1 [Lapatinib] (partner 2 µM)
Summary of the method: as §1

## LK-2
[1]; first compound 0.1 µM
  relative viability: 0.308
[1]; first compound 1 µM
  relative viability: 0.319
[1]; first compound 3.162 µM
  relative viability: 0.329
[2]; first compound 0.1 µM
  relative viability: 0.483
[2]; first compound 1 µM
  relative viability: 0.42
[2]; first compound 3.162 µM
  relative viability: 0.183
[3]; first compound 0.02 µM
  relative viability: 0.173
[3]; first compound 0.06325 µM
  relative viability: 0.195
[3]; first compound 0.2 µM
  relative viability: 0.217
[3]; first compound 0.6325 µM
  relative viability: 0.173
[3]; first compound 2 µM
  relative viability: 0.208
[4]; first compound 0.1 µM
  relative viability: 0.879
[4]; first compound 1 µM
  relative viability: 0.723
[4]; first compound 3.162 µM
  relative viability: 0.464
[5]; first compound 0.1 µM
  relative viability: 0.802
[5]; first compound 1 µM
  relative viability: 0.734
[5]; first compound 3.162 µM
  relative viability: 0.536

## BEN
[1]; first compound 0.1 µM
  relative viability: 0.727
[1]; first compound 1 µM
  relative viability: 0.623
[1]; first compound 3.162 µM
  relative viability: 0.531
[2]; first compound 0.1 µM
  relative viability: 0.561
[2]; first compound 1 µM
  relative viability: 0.527
[2]; first compound 3.162 µM
  relative viability: 0.405
[3]; first compound 0.02 µM
  relative viability: 0.254
[3]; first compound 0.06325 µM
  relative viability: 0.67
[3]; first compound 0.2 µM
  relative viability: 0.211
[3]; first compound 0.6325 µM
  relative viability: 0.467
[3]; first compound 2 µM
  relative viability: 0.311
[4]; first compound 0.1 µM
  relative viability: 0.0749
[4]; first compound 1 µM
  relative viability: 0.0596
[4]; first compound 3.162 µM
  relative viability: 0.0617
[5]; first compound 0.1 µM
  relative viability: 0.731
[5]; first compound 1 µM
  relative viability: 0.66
[5]; first compound 3.162 µM
  relative viability: 0.519

## NCI-H23
[1]; first compound 0.1 µM
  relative viability: 0.376
[1]; first compound 1 µM
  relative viability: 0.291
[1]; first compound 3.162 µM
  relative viability: 0.275
[2]; first compound 0.1 µM
  relative viability: 0.517
[2]; first compound 1 µM
  relative viability: 0.42
[2]; first compound 3.162 µM
  relative viability: 0.293
[3]; first compound 0.06325 µM
  relative viability: 0.217
[3]; first compound 0.2 µM
  relative viability: 0.216
[3]; first compound 0.6325 µM
  relative viability: 0.222
[3]; first compound 2 µM
  relative viability: 0.234
[4]; first compound 0.1 µM
  relative viability: 0.775
[4]; first compound 1 µM
  relative viability: 0.735
[4]; first compound 3.162 µM
  relative viability: 0.331
[5]; first compound 0.1 µM
  relative viability: 1.23
[5]; first compound 1 µM
  relative viability: 0.872
[5]; first compound 3.162 µM
  relative viability: 0.413

## NCI-H1395
[1]; first compound 0.1 µM
  relative viability: 0.4
[1]; first compound 1 µM
  relative viability: 0.428
[1]; first compound 3.162 µM
  relative viability: 0.501
[2]; first compound 0.1 µM
  relative viability: 0.901
[2]; first compound 1 µM
  relative viability: 0.687
[2]; first compound 3.162 µM
  relative viability: 0.6
[3]; first compound 0.02 µM
  relative viability: 0.615
[3]; first compound 0.06325 µM
  relative viability: 0.78
[3]; first compound 0.2 µM
  relative viability: 0.678
[3]; first compound 0.6325 µM
  relative viability: 0.655
[3]; first compound 2 µM
  relative viability: 0.617
[4]; first compound 0.1 µM
  relative viability: 1.26
[4]; first compound 1 µM
  relative viability: 1.23
[4]; first compound 3.162 µM
  relative viability: 0.826
[5]; first compound 0.1 µM
  relative viability: 1.23
[5]; first compound 1 µM
  relative viability: 1.14
[5]; first compound 3.162 µM
  relative viability: 0.816

## 201T
[1]; first compound 0.1 µM
  relative viability: 0.603
[1]; first compound 1 µM
  relative viability: 0.723
[1]; first compound 3.162 µM
  relative viability: 0.676
[2]; first compound 0.1 µM
  relative viability: 0.683
[2]; first compound 1 µM
  relative viability: 0.649
[2]; first compound 3.162 µM
  relative viability: 0.698
[3]; first compound 0.02 µM
  relative viability: 1.1
[3]; first compound 0.06325 µM
  relative viability: 1.07
[3]; first compound 0.2 µM
  relative viability: 1.11
[3]; first compound 0.6325 µM
  relative viability: 1.03
[3]; first compound 2 µM
  relative viability: 1.06
[4]; first compound 0.1 µM
  relative viability: 1.22
[4]; first compound 1 µM
  relative viability: 1.26
[4]; first compound 3.162 µM
  relative viability: 1.17
[5]; first compound 0.1 µM
  relative viability: 1.05
[5]; first compound 1 µM
  relative viability: 1.06
[5]; first compound 3.162 µM
  relative viability: 1.06

## NCI-H2170
[1]; first compound 0.1 µM
  relative viability: 0.899
[1]; first compound 1 µM
  relative viability: 1.04
[1]; first compound 3.162 µM
  relative viability: 0.724
[2]; first compound 0.1 µM
  relative viability: 0.299
[2]; first compound 1 µM
  relative viability: 0.275
[2]; first compound 3.162 µM
  relative viability: 0.227
[3]; first compound 0.02 µM
  relative viability: 0.738
[3]; first compound 0.06325 µM
  relative viability: 0.7
[3]; first compound 0.2 µM
  relative viability: 0.552
[3]; first compound 0.6325 µM
  relative viability: 0.75
[3]; first compound 2 µM
  relative viability: 0.616
[4]; first compound 0.1 µM
  relative viability: 0.564
[4]; first compound 1 µM
  relative viability: 0.674
[4]; first compound 3.162 µM
  relative viability: 0.432
[5]; first compound 0.1 µM
  relative viability: 0.295
[5]; first compound 1 µM
  relative viability: 0.305
[5]; first compound 3.162 µM
  relative viability: 0.258

## NCI-H460
[1]; first compound 0.1 µM
  relative viability: 0.618
[1]; first compound 1 µM
  relative viability: 0.904
[1]; first compound 3.162 µM
  relative viability: 0.953
[2]; first compound 0.1 µM
  relative viability: 0.363
[2]; first compound 1 µM
  relative viability: 0.323
[2]; first compound 3.162 µM
  relative viability: 0.274
[3]; first compound 0.02 µM
  relative viability: 0.032
[3]; first compound 0.06325 µM
  relative viability: 0.0402
[3]; first compound 0.2 µM
  relative viability: 0.0319
[3]; first compound 0.6325 µM
  relative viability: 0.0282
[3]; first compound 2 µM
  relative viability: 0.0345
[4]; first compound 0.1 µM
  relative viability: 0.978
[4]; first compound 1 µM
  relative viability: 1.25
[4]; first compound 3.162 µM
  relative viability: 0.305
[5]; first compound 0.1 µM
  relative viability: 1.02
[5]; first compound 1 µM
  relative viability: 1.03
[5]; first compound 3.162 µM
  relative viability: 0.48

## HCC-15
[1]; first compound 0.1 µM
  relative viability: 1.2
[1]; first compound 1 µM
  relative viability: 1.29
[1]; first compound 3.162 µM
  relative viability: 1.28
[2]; first compound 0.1 µM
  relative viability: 0.746
[2]; first compound 1 µM
  relative viability: 0.79
[2]; first compound 3.162 µM
  relative viability: 0.56
[3]; first compound 0.02 µM
  relative viability: 0.332
[3]; first compound 0.06325 µM
  relative viability: 0.306
[3]; first compound 0.2 µM
  relative viability: 0.302
[3]; first compound 0.6325 µM
  relative viability: 0.365
[3]; first compound 2 µM
  relative viability: 0.335
[4]; first compound 0.1 µM
  relative viability: 0.683
[4]; first compound 1 µM
  relative viability: 0.683
[4]; first compound 3.162 µM
  relative viability: 0.609
[5]; first compound 0.1 µM
  relative viability: 0.854
[5]; first compound 1 µM
  relative viability: 0.932
[5]; first compound 3.162 µM
  relative viability: 0.743

## EPLC-272H
[1]; first compound 0.1 µM
  relative viability: 0.265
[1]; first compound 1 µM
  relative viability: 0.34
[1]; first compound 3.162 µM
  relative viability: 0.284
[2]; first compound 0.1 µM
  relative viability: 0.349
[2]; first compound 1 µM
  relative viability: 0.325
[2]; first compound 3.162 µM
  relative viability: 0.237
[3]; first compound 0.02 µM
  relative viability: 0.265
[3]; first compound 0.06325 µM
  relative viability: 0.264
[3]; first compound 0.2 µM
  relative viability: 0.367
[3]; first compound 0.6325 µM
  relative viability: 0.186
[3]; first compound 2 µM
  relative viability: 0.35
[4]; first compound 0.1 µM
  relative viability: 1.26
[4]; first compound 1 µM
  relative viability: 1.13
[4]; first compound 3.162 µM
  relative viability: 0.584
[5]; first compound 0.1 µM
  relative viability: 0.937
[5]; first compound 1 µM
  relative viability: 0.817
[5]; first compound 3.162 µM
  relative viability: 0.649
